{"source": "patent US4657891A", "about": "“Diuretic peptide, and production and use thereof” (Suntory Limited, priority 1984, dated 1987)", "key": {"Solubility in solvents": {"assay": "Solubility in solvents", "format": "physicochemical", "from_the_text": "(6) Solubility in solvents: soluble in water, partially in methanol, and acetic acid; insoluble in ethyl acetate, butyl acetate, ethyl ether, hexane, petroleum ether, benzene, and chloroform."}, "[1]": {"assay": "Repeated administration: antibody production, anaphylaxis shock, toxicity", "format": "in vivo"}, "Male rats [2]": {"test_system": "Male rats", "assay": "Another test: relative amounts of urine, Na+, K+, Cl- for 30 minutes before and after administration (Table 3)", "format": "in vivo, rat", "details": "Furosemide 0.3 μmol", "method": "Male rats weighing 300 to 400 grams were anesthetized by intraperitoneal administration of pentobarbital at a dosage of 60 mg/kg, and used for tests of the β-rANP according to the method described in Life Sciences, Vol. 28, pp 89-94.\nTo keep the respiratory tract open, a tracheal cannula (PE-240 Clay-Adams) was inserted into the trachea. An arterial cannula (PE-50) was inserted into a femoral artery for measurement of the blood pressure, and a venous cannula was inserted into a femoral vein for the administration of Ringer's solution. 1.2 ml of Ringer's solution was infused at a flow rate of 1.2 ml/hour.\nA bladder cannula made of silastic tube with a inner diameter of 0.02 inches and an outer diameter of 0.037 inches was inserted into the bladder, and via the cannula, a urine sample was collected into a test tube. The collection of urine was carried out for 30 minutes before administration of the test compound, and every five minutes after the administration.\nA predetermined amount of the test compound β-rANP was dissolved in 50 μl of sterilized physiological saline with 5 μg of bacitracin, and the solution was injected into the jugular vein."}, "Male rats [3]": {"test_system": "Male rats", "assay": "Diuretic and natriuretic test in anesthetized rats, urine collected before and 5 minutes after jugular vein injection (Table 2)", "format": "in vivo, rat", "details": "furosemide 1.21 μmole (group IV)", "procedure": "To keep the respiratory tract open, a tracheal cannula (PE-240 Clay-Adams) was inserted into the trachea. An arterial cannula (PE-50) was inserted into a femoral artery for measurement of the blood pressure, and a venous cannula was inserted into a femoral vein for the administration of Ringer's solution.\nThe collection of urine was carried out for 30 minutes before administration of the test compound, and every five minutes after the administration.\nThe control group (group I) was administered 50 μl of physiological saline containing only bacitracin."}}, "note": "Bridge positions count the residues as written; N and C are the ends. Ends that are not written are not given here.", "data": [{"compound": "PSDRSALLKSKLRALLAGPRSLRRSSCFGGRIDRIGAQSGLGCNSFRY (disulfide 27-43) [β-rANP, β-rat atrial natriuretic polypeptide]", "values": [{"measurement": "Solubility in solvents", "setting": "Solubility in solvents; ethyl acetate, butyl acetate, ethyl ether, hexane, petroleum ether, benzene, and chloroform", "value": "insoluble"}, {"measurement": "Solubility in solvents", "setting": "Solubility in solvents; methanol, and acetic acid", "value": "partially"}, {"measurement": "Solubility in solvents", "setting": "Solubility in solvents; water", "value": "soluble"}, {"measurement": "toxicity", "setting": "[1]; in vivo", "value": "little toxicity"}, {"measurement": "anaphylaxis shock", "setting": "[1]; repeated administration", "value": "does not cause"}, {"measurement": "production of antibodies", "setting": "[1]; repeated administration", "value": "does not stimulate"}]}, {"compound": "NS(=O)(=O)c1cc(C(=O)O)c(NCc2ccco2)cc1Cl", "note": "[Furosemide, furosemide]", "values": [{"measurement": "Urine volume, percentage after relating to before", "setting": "Male rats [2]", "value": "497 ± 165", "unit": "%"}, {"measurement": "Urine volume A", "setting": "Male rats [3]; A: sample collected 5 minutes after administration", "value": "167 ± 28", "unit": "µL/min"}, {"measurement": "Urine volume B", "setting": "Male rats [3]; B: sample collected 30 minutes before administration", "value": "8.6 ± 1.9", "unit": "µL/min"}]}]}
